{"source": "patent US9956201B2", "about": "“Compositions comprising bioreversible derivatives of hydroxy N-substituted-2-aminotetralins, and related dosage forms” (Spriaso LLC, priority 2014, dated 2018)", "key": {"[1]": {"assay": "Apparent lipophilicity log D at pH 7.4 (octanol / pH 7.4 surfactant free buffer)", "assay_type": "physicochemical", "excerpt": "The log DpH=7.4 value is a log of the distribution efficiency (ratio of concentrations of the disclosed bioreversible derivatives in octanol solvent to a pH 7.4 aqueous surfactant free buffer media).\nTABLE 5 summarized the intrinsic lipophilicity and apparent lipophilicity of hydroxy N-substituted-2-aminotetralins in comparison with those of some examples of the corresponding bioreversible derivatives according to the disclosure."}, "[2]": {"details": "cited from earlier work"}, "[3]": {"assay": "Pharmacokinetics of dosage forms at varied doses of Composition 1c-10 containing caprate ester A10", "assay_type": "in vivo", "details": "serum rotigotine, human, oral, Composition 1c-10 with A10", "description": "Serial blood samples were drawn at predetermined time (e.g., t=0, 12, 24, etc.) and analyzed for rotigotine concentration using a validated HPLC-MS/MS analytical method. The rotigotine Cmax, ratio of rotiogtine peak levels to rotigotine equivalent, Cmax/mg, rotiogotine Cavgt1-t2, rotigotine steady state maximum concentration, Css-max, rotigotine AUCt1-t2 and ratio of rotigotine area under the curve to rotigotine equivalent dose in mg, AUCt1-t2/mg, were calculated in the serum of the subjects. Pharmacokinetic and statistical analyses were performed on the data obtained from the subjects, the pharmacokinetic parameters were defined as follows:\n[…] Serial blood samples were drawn for the human subjects at predetermined time (e.g., t=0, 12, 24, etc.) and analyzed to determine pharmacokinetic parameters in the serum of the subjects."}, "[4]": {"details": "no method; cited from earlier work"}, "[5]": {"details": "dose 0.1 mg as rotigotine equivalent"}, "[6]": {"details": "dose 500 mg as rotigotine equivalent"}}, "data": [{"smiles": "CCCN(CCc1cccs1)[C@H]1CCc2c(O)cccc2C1", "note": "[Compound A1, (S)-6-[propyl(2-thiophen-2-ylethyl)amino]-5,6,7,8-tetrahydronaphthalen-1-ol]", "values": [{"measurement": "Apparent Lipophilicity logD7.4", "setting": "[1]", "value": "1-1.9"}, {"measurement": "activity upon oral administration", "setting": "[2]; preclinical data", "value": "zero to limited activity"}]}, {"smiles": "CCCCCCCCCC(=O)Oc1cccc2c1CCC(N(CCC)CCc1cccs1)C2", "note": "(stereo not drawn) [Compound A10]", "values": [{"measurement": "Apparent Lipophilicity logD7.4", "setting": "[1]", "value": ">4"}, {"measurement": "Mean AUC/mg", "setting": "[3]; [5]", "value": "<1.25 × 10^−9 hr..^−1"}, {"measurement": "Mean Cmax/mg", "setting": "[3]; [5]", "value": "<1e-10", "unit": "mL⁻¹"}, {"measurement": "Mean AUC/mg", "setting": "[3]; [6]", "value": ">188 × 10^−6 hr..^−1"}, {"measurement": "Mean Cmax/mg", "setting": "[3]; [6]", "value": ">1.2e-05", "unit": "mL⁻¹"}]}, {"smiles": "CCCN[C@H]1CCc2c(O)cccc2C1", "note": "[Compound B1, (6S)-(−)-5-hydroxy-N-propyl-2-aminotetralin]", "values": [{"measurement": "Apparent Lipophilicity logD7.4", "setting": "[1]", "value": "−0.5"}, {"measurement": "pKa", "setting": "[4]", "value": "about 10.6"}]}, {"smiles": "CCCCCCCCCCCCCCCC(=O)Oc1cccc2c1CCC(NCCC)C2", "note": "(stereo not drawn) [Compound B5]", "values": [{"measurement": "Apparent Lipophilicity logD7.4", "setting": "[1]", "value": "6.5-7.5"}]}, {"smiles": "CCCN(CCC)C1CCc2cccc(O)c2C1", "note": "(stereo not drawn) [Compound C1, 8-hydroxy-N,N-dipropyl-2-aminotetralin]", "values": [{"measurement": "pKa", "setting": "[4]", "value": "about 10.54"}]}, {"smiles": "CCCN(CCC)C1CCc2ccc(O)cc2C1", "note": "(stereo not drawn) [Compound C2, 7-hydroxy-N,N-dipropyl-2-aminotetralin]", "values": [{"measurement": "pKa", "setting": "[4]", "value": "about 10.54"}]}, {"smiles": "CCCN(CCC)C1CCc2c(O)cccc2C1", "note": "(stereo not drawn) [Compound C3, 5-hydroxy-N,N-dipropyl-2-aminotetralin]", "values": [{"measurement": "pKa", "setting": "[4]", "value": "about 10.5"}]}, {"smiles": "CCCCCCCCCCCC(=O)Oc1cccc2c1CC(N(CCC)CCC)CC2", "note": "(stereo not drawn) [Compound C7, Laurate (C12) Ester of 8-OH-DPAT]", "values": [{"measurement": "Apparent Lipophilicity logD7.4", "setting": "[1]", "value": "6.5-7.5"}]}, {"smiles": "CCCN(CCc1cccs1)[C@H]1CCc2c(O)cccc2C1", "note": "[Compound N-0923]", "values": [{"measurement": "bioavailability after oral administration", "setting": "[2]; animal model", "value": "about 0.5%"}]}]}
